Reference: patent US11999987B2, “Bacterial cocultures expressing a bacteriocin system” (Lallemand Hungary Liquidity Management LLC, priority 2020, dated 2024)

Legend:
[1] = test system: Lb. paracasei E3.1 expressing pDW2-P5-nisIEFG; test: Growth of Lb. paracasei E3.1 expressing the nisin autoimmunity construct in MRS with nisin, OD600; assay type: cell-based, Lactobacillus paracasei; details: MRS supplemented with 500 ppm of nisin; strain expressing pDW2-P5-nisIEFG; FIG. 1
Protocol: (§1) Resulting Lb. paracasei strains (±the nisin resistance construct) were grown in MRS (no nisin) and MRS supplemented with 500 ppm of nisin. The OD600 was monitored. When nisin was absent from the media both strains grew identically, indicating no deleterious effect of NisIEFG expression (FIG. 1).

[2] = test system: Lb. paracasei E3.1 harboring the empty vector; test: Growth of Lb. paracasei E3.1 (empty vector) in MRS with nisin, OD600; assay type: cell-based, Lactobacillus paracasei; details: MRS supplemented with 500 ppm of nisin; empty vector strain; FIG. 1
Protocol: as §1

nisin
growth rate (OD600) in the presence of nisin [1]: only a minimal decrease in growth rate
growth (OD600) in the presence of nisin [2]: completely inhibited
